Test results published in patent publication US10961238B2, “Modulators of hedgehog (Hh) signaling pathway” (E-THERAPEUTICS PLC, priority 2016, dated 2021).

system: C3H10T1/2 cells; assay: C3H assay: differentiation of C3H10T1/2 cells by mSHH, measurement of alkaline phosphatase; assay type: cell-based, mouse; conditions: Mus musculus, C3H 10T1/2; C3H10T1/2 cells stimulated with mSHH for 72 hours; alkaline phosphatase activity; read-out: IC50 Ranges

| SMILES | IC50 [nM] |
| --- | --- |
| O=C(OC1CCOCC1)N1CC(S(=O)(=O)N2CCC(c3ccncc3)CC2)C1 [Compound 29, oxan-4-yl 3-(4-pyridin-4-ylpiperidin-1-yl)sulfonylaze-tidine-1-carboxylate] | 1000 to 10000 |
| O=C(OCC1CCCO1)N1CC(S(=O)(=O)N2CCC(c3ccncc3)CC2)C1 (stereo not shown) [Compound 30, (oxolan-2-yl)methyl 3-(4-pyridin-4-ylpiperidin-1-yl)sulfonylaze-tidine-1-carboxylate] | 1000 to 10000 |
| CN(C(=O)N1CC(S(=O)(=O)N2CCC(c3ccncc3)CC2)C1)C(C)(C)C [Compound 31, N-tert-butyl-N-methyl-3-(4-pyridin-4-ylpiperidin-1-yl)sulfonylaze-tidine-1-carboxamide] | 100 to 1000 |
| CC1(C)COCC(C)(C)N1C(=O)N1CC(S(=O)(=O)N2CCC(c3ccncc3)CC2)C1 [Compound 32, [3-(4-pyridin-4-ylpiperidin-1-yl)sulfonylaze-tidin-1-yl]-(3,3,5,5-tetramethylmor-pholin-4-yl)methanone] | 100 to 1000 |
| CC(C)(C)CC(C)(C)NC(=O)N1CC(S(=O)(=O)N2CCC(c3ccncc3)CC2)C1 [Compound 33, 3-(4-pyridin-4-ylpiperidin-1-yl)sulfonyl-N-(2,4,4-trimethylpentan-2-yl)azetidine-1-carboxamide] | 10 to 100 |
| C[C@@H]1CN(C(=O)N2CC(S(=O)(=O)N3CCC(c4cnc5occc5c4)CC3)C2)C[C@H](C)O1 [Compound 35, [(2R,6S)-2,6-dimethylmorpholin-4-yl]-[3-(4-furo[2,3-b]pyridin-5-ylpiperidin-1-yl)sulfonylaze-tidin-1-yl]methanone] | 100 to 1000 |
| Cc1noc(C)c1NC(=O)N1CC(S(=O)(=O)N2CCC(c3cnc4c(c3)CCO4)CC2)C1 [Compound 36, 3-[4-(2,3-dihydrofuro[2,3-b]pyridin-5-yl)piperidin-1-yl]sulfonyl-N-(3,5-dimethyl-1,2-oxazol-4-yl)azetidine-1-carboxamide] | 1000 to 10000 |
| Cc1noc(C)c1NC(=O)N1CC(S(=O)(=O)N2CCC(c3cnc4occc4c3)CC2)C1 [Compound 37, N-(3,5-dimethyl-1,2-oxazol-4-yl)-3-(4-furo[2,3-b]pyridin-5-ylpiperidin-1-yl)sulfonylaze-tidine-1-carboxamide] | 1000 to 10000 |
| O=C(OC1CCCCC1)N1CC(S(=O)(=O)N2CCC(c3cnc4occc4c3)CC2)C1 [Compound 38, cyclohexyl 3-(4-furo[2,3-b]pyridin-5-ylpiperidin-1-yl)sulfonylaze-tidine-1-carboxylate] | 100 to 1000 |
| Cc1noc(C)c1NC(=O)N1CC(S(=O)(=O)N2CCC(c3c[nH]c4cccnc34)CC2)C1 [Compound 39, N-(3,5-dimethyl-1,2-oxazol-4-yl)-3-[4-(1H-pyrrolo[3,2-b]pyridin-3-yl)piperidin-1-yl]sulfonylaze-tidine-1-carboxamide] | 10 to 100 |
| O=C(OC1CCCCC1)N1CC(S(=O)(=O)N2CCC(c3cn(C(=O)OC4CCCCC4)c4cccnc34)CC2)C1 [Compound 40, cyclohexyl 3-[1-(1-cyclohexyloxycarbonylazetidin-3-yl)sulfonylpiper-idin-4-yl]pyrrolo [3,2-b]pyridine-1-carboxylate] | 1000 to 10000 |
| O=C(OC1CCCCC1)N1CC(S(=O)(=O)N2CCC(c3c[nH]c4cccnc34)CC2)C1 [Compound 41, cyclohexyl 3-[4-(1H-pyrrolo[3,2-b]pyridin-3-yl)piperidin-1-yl]sulfonylaze-tidine-1-carboxylate] | 10 to 100 |
| Cc1noc(C)c1NC(=O)N1CC(S(=O)(=O)N2CCC(c3cn(C)c4nccnc34)CC2)C1 [Compound 42, N-(3,5-dimethyl-1,2-oxazol-4-yl)-3-[4-(5-methylpyrrolo [2,3-b]pyrazin-7-yl)piperidin-1-yl]sulfonylaze-tidine-1-carboxamide] | 1000 to 10000 |

Second part, the molecule after the results:

| IC50 [nM] | SMILES |
| --- | --- |
| 10 to 100 | Cc1noc(C)c1NC(=O)N1CC(S(=O)(=O)N2CCC(c3c[nH]c4nccnc34)CC2)C1 [Compound 43, N-(3,5-dimethyl-1,2-oxazol-4-yl)-3-[4-(5H-pyrrolo [2,3-b]pyrazin-7-yl)piperidin-1-yl]sulfonylaze-tidine-1-carboxamide] |
| 10 to 100 | O=C(OC1CCCCC1)N1CC(S(=O)(=O)N2CCC(c3c[nH]c4nccnc34)CC2)C1 [Compound 44, cyclohexyl 3-[4-(5H-pyrrolo[2,3-b]pyrazin-7-yl)piperidin-1-yl]sulfonylaze-tidine-1-carboxylate] |
| 1000 to 10000 | CC1CC(c2c[nH]c3ncccc23)CCN1S(=O)(=O)C1CN(C(=O)OC(C)(C)C)C1 (stereo not shown) [Compound 46, tert-butyl 3-[2-methyl-4-(1H-pyrrolo [2,3-b]pyridin-3-yl)piperidin-1-yl]sulfonylaze-tidine-1-carboxylate] |
| 1000 to 10000 | COc1ccc(C2CCN(S(=O)(=O)C3CN(C(=O)OC(C)(C)C)C3)CC2)nc1 [Compound 47, tert-butyl 3-[4-(5-methoxypyridin-2-yl)piperidin-1-yl]sulfonylaze-tidine-1-carboxylate] |
| 100 to 1000 | COc1ccc(C2CCN(S(=O)(=O)C3CN(C(=O)OC(C)(C)C)C3)CC2)cn1 [Compound 48, tert-butyl 3-[4-(6-methoxypyridin-3-yl)piperidin-1-yl]sulfonylaze-tidine-1-carboxylate] |
| 10 to 100 | CC(C)(C)OC(=O)N1CC(S(=O)(=O)N2CCC(c3c[nH]c4cccnc34)CC2)C1 [Compound 49, tert-butyl 3-[4-(1H-pyrrolo[3,2-b]pyridin-3-yl)piperidin-1-yl]sulfonylaze-tidine-1-carboxylate] |
| 10 to 100 | CN(C)CC(C)(C)OC(=O)N1CC(S(=O)(=O)N2CCC(c3c[nH]c4ncccc34)CC2)C1 [Compound 50, [1-(dimethylamino)-2-methylpropan-2-yl] 3-[4-(1H-pyrrolo[2,3-b]pyridin-3-yl)piperidin-1-yl]sulfonylaze-tidine-1-carboxylate] |
| 100 to 1000 | CN1CCC(COC(=O)N2CC(S(=O)(=O)N3CCC(c4c[nH]c5ncccc45)CC3)C2)CC1 [Compound 51, (1-methylpiperidin-4-yl)methyl 3-[4-(1H-pyrrolo [2,3-b]pyridin-3-yl)piperidin-1-yl]sulfonylaze-tidine-1-carboxylate] |
| 100 to 1000 | CCN(CC)CCOC(=O)N1CC(S(=O)(=O)N2CCC(c3c[nH]c4ncccc34)CC2)C1 [Compound 52, 2-(diethylamino) ethyl 3-[4-(1H-pyrrolo [2,3-b]pyridin-3-yl)piperidin-1-yl]sulfonylaze-tidine-1-carboxylate] |
| 1000 to 10000 | CN1CCN(CCCOC(=O)N2CC(S(=O)(=O)N3CCC(c4c[nH]c5ncccc45)CC3)C2)CC1 [Compound 53, 3-(4-methylpiperazin-1-yl)propyl 3-[4-(1H-pyrrolo [2,3-b]pyridin-3-yl)piperidin-1-yl]sulfonylaze-tidine-1-carboxylate] |
| 10 to 100 | O=C(OCCN1CCOCC1)N1CC(S(=O)(=O)N2CCC(c3c[nH]c4ncccc34)CC2)C1 [Compound 54, 2-morpholin-4-ylethyl 3-[4-(1H-pyrrolo [2,3-b]pyridin-3-yl)piperidin-1-yl]sulfonylaze-tidine-1-carboxylate] |
| 10 to 100 | Cc1noc(C)c1CNC(=O)N1CC(S(=O)(=O)N2CCC(c3c[nH]c4ncccc34)CC2)C1 [Compound 55, N-[(3,5-dimethyl-1,2-oxazol-4-yl)methyl]-3-[4-(1H-pyrrolo[2,3-b]pyridin-3-yl)piperidin-1-yl]sulfonylaze-tidine-1-carboxamide] |
